These compounds were tested against T1, human Npt2a (Homo sapiens, UniProt Q06495) (assay: Npt2a activity cell based assay, membrane potential dye, CHO T-REx hNpt2a cells). Conditions: doxycycline-induced, depolarization by sodium phosphate influx, average or median values if tested more than once.
T1 construct: expressed in transfected cells
T1 sequence (Q06495 1-639): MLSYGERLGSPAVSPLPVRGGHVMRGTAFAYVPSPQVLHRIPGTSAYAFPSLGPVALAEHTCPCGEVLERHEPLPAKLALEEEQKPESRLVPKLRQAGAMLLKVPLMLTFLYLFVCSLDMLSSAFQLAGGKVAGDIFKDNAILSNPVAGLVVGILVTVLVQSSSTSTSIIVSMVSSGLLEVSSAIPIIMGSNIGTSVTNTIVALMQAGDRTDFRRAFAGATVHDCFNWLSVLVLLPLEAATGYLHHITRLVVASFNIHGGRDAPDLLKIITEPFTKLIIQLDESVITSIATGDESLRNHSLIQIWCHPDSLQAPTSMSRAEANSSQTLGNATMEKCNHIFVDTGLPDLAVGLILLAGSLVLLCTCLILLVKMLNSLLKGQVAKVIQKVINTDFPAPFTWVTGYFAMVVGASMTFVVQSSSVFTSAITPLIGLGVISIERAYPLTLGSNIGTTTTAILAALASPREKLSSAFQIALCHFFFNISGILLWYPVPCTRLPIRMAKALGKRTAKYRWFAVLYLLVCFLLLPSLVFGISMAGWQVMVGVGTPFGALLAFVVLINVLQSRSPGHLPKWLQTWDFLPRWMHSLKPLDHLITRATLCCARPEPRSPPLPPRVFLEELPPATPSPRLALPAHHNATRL
Description: For measuring Npt2a activity in a cell based assay, a stable CHO cell line with inducible Npt2a expression was generated. Therefore, CHO T-Rex cells (life technologies cat. R718-07) were stably transfected with doxycycline-inducible human NPT2a (pcDNA5TO-hNpt2a). The obtained CHO T-REx hNpt2a cells were routinely cultured in Dulbecco's MEM/F12 (4.5 g/l Glucose, Gibco cat. 21331-020; 500 mL) supplemented with 10 ml Glutamax 100×, Sodium pyruvate (7 mL of 100 mM solution), HEPES (10 mL of 1 M solution), Sodium bicarbonate (10 mL of 7.5% solution), 10% Fetal Bovine Serum Tetracycline free (Clontech cat. 631106, 500 ml), Penicillin-Streptomycin (5 mL of 100× Solution), Blasticidin 10 μg/mL and 400 μg/mL Hygromycin.
Activity of Npt2a was detected by following depolarization of cellular membrane potential by influx of sodium phosphate using fluorescent membrane potential dye kit BLUE (Molecular devices cat. R8034). For Npt2a activity measurements, CHO T-Rex hNpt2a cells were seeded into 1536 well microtiter plates (GREINER Bio-One cat. 782092) with 750 cells/well in 7 μL/w of complete medium (2% Tetracycline-free FBS, 2% Poly-D-Lysine) without selective agents+Doxycycline 0.5 μg/mL to induce Npt2a gene expression, and grown for 24 h at 37° C., 5% carbon dioxide.
On the day of experiment a 1×MPdye Loading Solution was freshly prepared by re-suspending 15 mg of Blue MPdye powder in 10 mL of NHE buffer sodium-free (140 mM N-Methyl-D-glucamine, 5.4 mM KCl, 1 mM CaCl2, 11 mM D(±)-Glucose water free, 1.2 mM MgCl2, 10 mM HEPES; pH 7.4 (adjusted with hydrochloric acid); sterile filtered). 5 μl medium was removed from plates by robotic manipulation, then 5 μL/well of sodium-free NHE buffer was added. After incubation for 2 min, this washing step was repeated once. Then, 5 μL/w of buffer was removed from plates and cells were incubated for 5 min at room temperature with 5 μL/w of MPdye Loading Solution (1× in Sodium-free NHE Buffer). Test compounds were added to the cells at final test concentrations between 50 μM and 1 nM (0.6 μL/well, final DMSO 0.6%, prepared in MPDye Loading Solution) and incubated for 5 min at room temperature.
Plates were analyzed with an in house CCD camera device using a λexc 510-545 nm/λem 565-625 nm filter. Fluorescence was detected for 15 sec (background measurement M1). Activity of Npt2a was triggered by addition of 2 μL/well of 30 mM Na+ and 1 mM phosphate (prepared in a mixture of NHE Buffer Na+ free and NHE Buffer 140 mM Na+). Fluorescence was followed for 2-3 min (depolarization measurement M2). Data was normalized to cell number and dye loading efficiency by calculating M2/M1. This quotient was plotted against test compound concentration. Graph Pad Prism or equivalent in house software was used to create sigmoidal dose-response curves (variable slope) and determine IC50 values.

SMILES	IC50
Cc1nn(-c2cc(Nc3c(C)c(-c4ccc(C#N)cc4)nn3CCC3CC3)ncn2)c(C)c1Cl [Example 221, 4-[5-{[6-(4-chloro-3,5-dimethyl-1H-pyrazol-1-yl)pyrimidin-4-yl]amino}-1-(2-cyclopropylethyl)-4-methyl-1H-pyrazol-3-yl]benzonitrile]	6 nM
CCC(O)c1c(C)nn(-c2cc(Nc3c(C)c(-c4ccc(F)cc4)nn3CC3CC3)ncn2)c1C (racemic) [Example 280, (±)-1-[1-(6-{[1-(cyclopropylmethyl)-3-(4-fluorophenyl)-4-methyl-1H-pyrazol-5-yl]amino}pyrimidin-4-yl)-3,5-dimethyl-1H-pyrazol-4-yl]propan-1-ol (Racemic)]	16 nM
CCc1c(-c2ccc(F)cc2)nn(CC2CC2)c1Nc1cc(-n2nc(C)c(-c3nnc(C)o3)c2C)ncn1 [Example 225, N-[1-(cyclopropylmethyl)-4-ethyl-3-(4-fluorophenyl)-1H-pyrazol-5-yl]-6-[3,5-dimethyl-4-(5-methyl-1,3,4-oxadiazol-2-yl)-1H-pyrazol-1-yl]pyrimidin-4-amine]	8 nM
Cc1nn(-c2cc(Nc3c(C)c(-c4ccc(F)cc4)nn3C)ncn2)c(C)c1C(F)(F)F [Example 382, 6-[3,5-dimethyl-4-(trifluoromethyl)-1H-pyrazol-1-yl]-N-[3-(4-fluorophenyl)-1,4-dimethyl-1H-pyrazol-5-yl]pyrimidin-4-amine]	35 nM
Cc1nnc(-c2c(C)nn(-c3cc(Nc4c(C)c(-c5ccc(F)cc5)nn4CC4CC4)ncn3)c2C)o1 [Example 372, N-[1-(cyclopropylmethyl)-3-(4-fluorophenyl)-4-methyl-1H-pyrazol-5-yl]-6-[3,5-dimethyl-4-(5-methyl-1,3,4-oxadiazol-2-yl)-1H-pyrazol-1-yl]pyrimidin-4-amine]	7 nM
Cc1cc(C)n(-c2cc(Nc3c(C)c(-c4ccc(OC(F)(F)F)cc4)nn3CC3CC3)ncn2)n1 [Example 308, N-{1-(cyclopropylmethyl)-4-methyl-3-[4-(trifluoromethoxy)phenyl]-1H-pyrazol-5-yl}-6-(3,5-dimethyl-1H-pyrazol-1-yl)pyrimidin-4-amine]	23 nM
Cc1cc(C)n(-c2cc(Nc3nn(C)c(-c4ccc(F)cc4)c3CN3CCCC3)ncn2)n1 [Example 194, 6-(3,5-dimethyl-1H-pyrazol-1-yl)-N-[5-(4-fluorophenyl)-1-methyl-4-(pyrrolidin-1-ylmethyl)-1H-pyrazol-3-yl]pyrimidin-4-amine]	1300 nM
Cc1nn(-c2cc(Nc3c(C)c(-c4ccc(C#N)cc4)nn3CC3CC3)ncn2)c(C)c1C(O)C(F)(F)F (single isomer, unassigned) [Example 359, 4-{1-(cyclopropylmethyl)-5-[(6-{3,5-dimethyl-4-[2,2,2-trifluoro-1-hydroxyethyl]-1H-pyrazol-1-yl}pyrimidin-4-yl)amino]-4-methyl-1H-pyrazol-3-yl}benzonitrile]	15 nM
CCc1c(Nc2cc(-n3nc(C)c(CN4CCN(C)CC4)c3C)ncn2)nn(C)c1-c1ccc(F)cc1 [Example 297, 6-{3,5-dimethyl-4-[(4-methylpiperazin-1-yl)methyl]-1H-pyrazol-1-yl}-N-[4-ethyl-5-(4-fluorophenyl)-1-methyl-1H-pyrazol-3-yl]pyrimidin-4-amine]	1430 nM
Cc1nn(-c2cc(Nc3c(C)c(-c4ccc(C#N)cc4)nn3CC3CC3)ncn2)c(C(F)F)c1C(=O)OC(C)(C)C [Example 192, tert-butyl 1-(6-{[3-(4-cyanophenyl)-1-(cyclopropylmethyl)-4-methyl-1H-pyrazol-5-yl]amino}pyrimidin-4-yl)-5-(difluoromethyl)-3-methyl-1H-pyrazole-4-carboxylate]	16 nM
Cc1nn(-c2cc(Nc3c(C4CC4)c(-c4ccc(F)cc4)nn3C)ncn2)c2ccccc12 [Example 47, N-[4-cyclopropyl-3-(4-fluorophenyl)-1-methyl-1H-pyrazol-5-yl]-6-(3-methyl-1H-indazol-1-yl)pyrimidin-4-amine]	89 nM
Cc1nn(-c2cc(Nc3c(C)c(-c4ccc(F)cc4)nn3CC3CC3)ncn2)c(C)c1C(O)C(F)(F)F (racemic) [Example 374, (±)-1-[1-(6-{[1-(cyclopropylmethyl)-3-(4-fluorophenyl)-4-methyl-1H-pyrazol-5-yl]amino}pyrimidin-4-yl)-3,5-dimethyl-1H-pyrazol-4-yl]-2,2,2-trifluoroethanol]	63 nM
CC(=O)c1c(C)nn(-c2cc(Nc3c(C)c(-c4ccc(C#N)cc4)nn3C)ncn2)c1C [Example 337, 4-(5-{[6-(4-acetyl-3,5-dimethyl-1H-pyrazol-1-yl)pyrimidin-4-yl]amino}-1,4-dimethyl-1H-pyrazol-3-yl)benzonitrile]	66 nM
CCc1c(-c2ccc(F)cc2)nn(CC(F)F)c1Nc1cc(-n2nc(C)c(Cl)c2C)ncn1 [Example 163, 6-(4-chloro-3,5-dimethyl-1H-pyrazol-1-yl)-N-[1-(2,2-difluoroethyl)-4-ethyl-3-(4-fluorophenyl)-1H-pyrazol-5-yl]pyrimidin-4-amine]	71 nM
Cc1nn(-c2cc(Nc3c(C)c(-c4ccc(F)cc4)nn3CC3CC3)ncn2)c(C)c1CC(C)(C)O [Example 302, 1-[1-(6-{[1-(cyclopropylmethyl)-3-(4-fluorophenyl)-4-methyl-1H-pyrazol-5-yl]amino}pyrimidin-4-yl)-3,5-dimethyl-1H-pyrazol-4-yl]-2-methylpropan-2-ol]	9 nM
Cc1c(-c2ccc(C#N)cc2)nn(CC2CC2)c1Nc1cc(-n2nc(C(C)C)cc2C)ncn1 [Example 286, 4-[1-(cyclopropylmethyl)-4-methyl-5-({6-[5-methyl-3-(propan-2-yl)-1H-pyrazol-1-yl]pyrimidin-4-yl}amino)-1H-pyrazol-3-yl]benzonitrile]	93 nM
Cc1nn(-c2cc(Nc3nn(CC4CC4)c(-c4ccc(F)cc4)c3C)ncn2)c(C)c1Cl [Example 170, 6-(4-chloro-3,5-dimethyl-1H-pyrazol-1-yl)-N-[1-(cyclopropylmethyl)-5-(4-fluorophenyl)-4-methyl-1H-pyrazol-3-yl]pyrimidin-4-amine]	440 nM
Cc1cc(C(F)F)n(-c2cc(Nc3c(C)c(-c4ccc(OC(F)(F)F)cc4)nn3CC3CC3)ncn2)n1 [Example 309, N-{1-(cyclopropylmethyl)-4-methyl-3-[4-(trifluoromethoxy)phenyl]-1H-pyrazol-5-yl}-6-[5-(difluoromethyl)-3-methyl-1H-pyrazol-1-yl]pyrimidin-4-amine]	44 nM
Cc1nn(-c2cc(Nc3nn(CCC4CC4)c(-c4ccc(C#N)cc4)c3C)ncn2)c(C(F)F)c1Cl [Example 239, 4-[3-({6-[4-chloro-5-(difluoromethyl)-3-methyl-1H-pyrazol-1-yl]pyrimidin-4-yl}amino)-1-(2-cyclopropylethyl)-4-methyl-1H-pyrazol-5-yl]benzonitrile]	290 nM
CCc1c(Nc2cc(-n3nc(C)c(C(=O)N4CCC(C(F)(F)F)C4)c3C)ncn2)nn(C)c1-c1ccc(F)cc1 (centres unmarked) [Example 272, [1-(6-{[4-ethyl-5-(4-fluorophenyl)-1-methyl-1H-pyrazol-3-yl]amino}pyrimidin-4-yl)-3,5-dimethyl-1H-pyrazol-4-yl][3-(trifluoromethyl)pyrrolidin-1-yl]methanone]	340 nM

— US11208400B2, “Substituted 6-(1H-pyrazol-1-yl)pyrimidin-4-amine derivatives and uses thereof” (Bayer Aktiengesellschaft, priority 2016, dated 2021)
